Data: patent US10526290B2, “Bendamustine derivatives and related compounds, and medical use thereof in cancer therapy” (SYNBIAS PHARMA AG, priority 2012, dated 2020)

`Cl.Cn1c(CCCC(=O)O)nc2ccc(N(CCCl)CCCl)cc21` showed a melting point of 174 to 176.5 °C.
